Source: patent US7160916B2, “Method of increasing bone density or treating osteoporosis” (Yung Shin Pharmaceutical Ind. Co., Ltd., priority 2003, dated 2007)

Experiments:
adult male rats = experiment: Bone loss induced by the cut of sciatic nerve; type: in vivo, rat; design: Tibia BMD / Tibia BMC / Femur BMD / Femur BMC: unit not given here; details: for Bone volume / Femur BMC / Femur BMD / Femur length / Femur weight / Tibia BMC / Tibia BMD / Tibia length / Tibia weight: i.p. 1 mg/kg daily for 1 month, mean ± S.E., n=10
From the text: Bone histomorphometry: After formalin fixation of tibia was completed, the tibiae were then decalcified in 0.5 N hydrochloric acid, dehydrated in an ascending series of ethanol solution and acetone, and embedded in paraffin. Serial sections (5 μm) were cut longitudinally and stained with Mayer's hematoxylin-eosin solution (Yang et al. (1993) Calcif Tissue Int 52:57–61). Images of the growth plate and proximal tibia were photographed using a photoMicroGraphic Digitize integrate System (MGDS; Total-Integra Technology Co., Ltd., Taipei, Taiwan). Bone volume measurements were performed on the whole secondary spongiosa, which is located under the primary spongiosa and characterized by a network of larger trabeculae. Bone volumes were calculated using an image analysis software. All measurements were done in a single-blind fashion. Ovariectomy and cut of sciatic nerve: Ovariectomy and cut of sciatic nerve were performed in adult female and male rats (3 month-old), respectively. After surgery, the rats were injected with Indazole 1 (i.p., 1 mg/Kg) or a vehicle daily for 4 weeks. On the day following the last injection, the rats were sacrificed and their tibia and femur were removed. Tibia and femur Preparation: At the end of the program, the rats were sacrificed by decapitation. The tibiae were removed, cleaned of soft tissue, and the length of the tibia was measured with a precision caliper (±0.05 mm) as described by Weinreb et al. (1991) J Bone Miner Res 6:725–731. The tibiae were fixed in 10% formaldehyde for 48 h at 4° C. for bone histomorphometry analysis. Some of the tibia and femur were also removed and kept at −20° C. for bone mineral analysis. Analysis of bone mineral density (BMD) and content (BMC): BMD and BMC of the tibia and femur were measured with a dual-energy X-ray absorptiometer (DEXA, XR-26; Norland, Fort Atkinson, Wis.). The mode adapted to the measurements of small subjects was adopted. A coefficient of variation of 0.7% was calculated from daily measurements of BMD on a lumbar phantom for more than 1 year (Yang et al. (1998) Calcif Tissue Int 63:86–90). The tibia and femur were thawed to room temperature before bone mineral analysis. The whole tibiae and femur were scanned and BMD and BMC were measured by absorptiometer.

Primary osteoblast cells = experiment: von Kossa staining, bone nodule formation; type: cell-based, rat; details: treatment for 2 weeks
Protocol: Primary osteoblast cultures: Primary osteoblast cells were prepared from calvaria of 18-day-old fetal Sprague-Dawley (SD) rats according to the following method: Pregnant rats were put in anesthesia using intraperitoneal injection of trichloroacetaldehyde (200 mg/kg). The calvaria of the fetal rats were then dissected with aseptic technique. Soft tissues were removed under a dissecting microscope. The calvaria were divided into small pieces and then treated with 0.1% collagenase (Sigma Chemical, St. Louis, Mo.) solution for 10 minutes at 37° C. The cells released from the calvariae by two 20-minute sequential collagenase digestions were pooled and filtered through 70 μm nylon filters (Falcon, BD BioSciences, San Jose, Calif.). […]
von Kossa staining: Osteoblasts were cultured in DMEM containing 50 μg/ml vitamin C and 10 mM β-glycerophosphate for 2 weeks and the medium was changed every 3 days. […] The number of nodules formed per well was counted under a light microscope. Collagen synthesis was determined by measuring the 4-hydroxyproline content in cultured osteoblasts. […] After lyophilizing and reconstituting a lysate in distilled water, the amount of 4-hydroxyproline was determined by spectrophotometry at 550 nm as described by Berg (1982) Meth Enzymol. […]

For `OCc1ccc(-c2nn(Cc3ccccc3)c3ccccc23)o1` [Indazole 1, 1-benzyl-3-(5′-hydroxymethyl-2′-furyl)-indazole], the “bone loss induced by nerve section” value (adult male rats; 1 mg/kg daily for 4 weeks immediately after the cut of sciatic nerve) was “antagonized the bone loss”, the Bone volume (adult male rats; Contralateral side) was 11.9 ± 0.98% and the “Femur BMC” value (adult male rats; Contralateral side) was 0.419 ± 0.016. The “Femur BMD” value (adult male rats; Contralateral side) was 0.132 ± 0.003, the Femur length (adult male rats; Contralateral side) was 3.95 ± 0.02 cm and the Femur weight (adult male rats; Contralateral side) was 1.16 ± 0.03 g. For the same compound, the “Tibia BMC” value (adult male rats; Contralateral side) was 0.282 ± 0.013, the “Tibia BMD” value (adult male rats; Contralateral side) was 0.106 ± 0.002 and the Tibia length (adult male rats; Contralateral side) was 4.36 ± 0.01 cm. For the same compound, the Tibia weight (adult male rats; Contralateral side) was 0.92 ± 0.03 g, the Bone volume (adult male rats; Surgery side) was 9.43 ± 0.8% and the “Femur BMC” value (adult male rats; Surgery side) was 0.394 ± 0.015. For the same compound, the “Femur BMD” value (adult male rats; Surgery side) was 0.129 ± 0.003, the Femur length (adult male rats; Surgery side) was 3.96 ± 0.01 cm and the Femur weight (adult male rats; Surgery side) was 1.17 ± 0.03 g. The “Tibia BMC” value (adult male rats; Surgery side) was 0.298 ± 0.014, the “Tibia BMD” value (adult male rats; Surgery side) was 0.106 ± 0.002 and the Tibia length (adult male rats; Surgery side) was 4.35 ± 0.01 cm. For the same compound, the Tibia weight (adult male rats; Surgery side) was 0.91 ± 0.03 g and the “number of bone nodules (von Kossa staining)” value (Primary osteoblast cells) was “increased the number of bone nodules in a concentration-dependent manner”.
